Assay results reported in US20070099217A1, “Method for stress evaluation” (priority 2005, published 2007).

What was measured:
Per1 gene = assay: expression of clock genes in liver of mouse given corticosterone (quantitative real time RT-PCR); assay type: in vivo
Experimental: This example is intended to investigate the amount of expression of Per1 in a mouse which was given corticosterone.
A mouse was given a prescribed amount of corticosterone, and one hour later, it had its liver extracted. The collected liver was homogenized for quantitative real time RT-PCR in the same way as in Example 2, and the amount of expression of clock genes was determined.
The abscissa represents the dosage (mg/kg) of corticosterone per 1 kg of the mouse's weight. “PBS” denotes the control which was given a phosphate buffer solution in place of corticosterone. “fold induction” on the ordinate represents the amount of expression of Per1 gene (in terms of a relative value, with the value for PBS being 1).
The abscissa represents each clock gene. “fold induction” on the ordinate represents the amount of expression of each clock gene in terms of a relative value, with the value for PBS being 1.

[1] = target: glucocorticoid receptor (GR) joining to GRE resembling sequence of Per1 gene (Mus musculus, UniProt P06537); settings: NIH3T3 cells, 1 hr after treatment with dexamethazone, anti-GR antibody
Experimental: First, NIH3T3 cells were treated with dexamethazone to induce the expression of mPer1 gene. The cells were given formaldehyde to fix the binding of protein and chromatin DNA. The chromatin DNA was fragmented by sonication and the resulting fragments underwent immunoprecipitation with anti-GR antibody. The resulting precipitates (as a composite of anti-GR antibody, GR, and chromatin DNA joining to GR) were recovered. The recovered precipitates were heated to remove the DNA-protein crosslinking. The desired sequence was amplified by PCR and the PCR product was identified by electrophoresis.
In other words, the primer was so designed as to specifically amplify the region near the two GRE resembling sequences.
In FIG. 5B, “IP: α-GR” indicates the desired sequence detected by semi-quantitative RT-PCR after immunoprecipitation by means of anti-GR antibody. “IP: αa-normal rabbit IgG” indicates the sequence (control) detected from immunoprecipitation by means of rabbit IgG. In addition, “input” indicates the desired sequence (control) detected by semi-quantitative RT-PCR without immunoprecipitation. “ChIP primer” in the lowermost row indicates the sequence of the primer used for semi-quantitative RT-PCR or the desired sequence which has been amplified. […]

[2] = tested on: promoter region of Per1 gene; assay: luciferase assay of Per1 promoter constructs in NIH3T3 cells with dexamethazone; assay type: cell-based; settings: dexamethazone 0.1 μM, 36 hours after transfection
Experimental: The second step was luciferase assay to investigate what part of the promoter region of Per1 is associated with stress response.
Luciferase is an enzyme protein that catalyzes bioluminescence. It can be used to estimate the level at which the expression of a specific gene is induced in the following manner. First, a recombinant gene is prepared in which the promoter region of a specific gene is joined to a gene that codes luciferase. Second, the recombinant gene is incorporated into cultured cells. Third, the gene is allowed to express so that the luciferase is allowed to express. Fourth, the intensity of bioluminescence due to luciferase is determined to obtain the level at which luciferase expresses.
An experiment was carried out based on the foregoing principle. It involves preparation of several kinds of DNA differing in the length of the promoter region of Per1 and determination of the expression level of Per1 in the presence of dexamethazone. […] Incidentally, dexamethazone is synthetic glucocorticoid. It is known that the amount of glucocorticoid in blood increases when a living organism experiences stress.
The procedure of the experiment is outlined below. • (1) The first step is to prepare DNAs (P1F, P1K, and P1S), the first one having the entire length of the promoter region of Per1 gene and the second and third ones having the partial length of the promoter region of Per1 gene, with the upstream side cut off. […] The subcultured cells are collected and dissolved 36 hours after transfection. • (4) The fourth step is to prepare a solution from the dissolved cells and measurement of the luminescence intensity by means of Dual Luciferase Assay System (from Promega). […]
FIG. 4C is a graph showing the results of luciferase assay. The abscissa (Relative Luciferase Activity) represents the intensity of luminescence in terms of relative value (%) compared with the intensity of luminescence assigned as 100 of the cultured cells incorporated with the entire length of the promoter region of Per1 gene.
“P1F” denotes the intensity of luminescence from cultured cells incorporated with the entire length of the promoter region of Per1 gene. “P1K” denotes the intensity of luminescence from cultured cells incorporated with the partial length of 3806 bases upstream from the transcription starting region of Per1 gene. “P1S” denotes the intensity of luminescence from cultured cells incorporated with the partial length of 2369 bases upstream from the transcription starting region of Per1 gene. “Vector” denotes the intensity of luminescence from cultured cells (control) incorporated with a blank vector. […] “Dex” and “EtOH” respectively denote the intensity of luminescence from a sample containing dexamethazone and a sample (control) containing ethanol. […]

Chain of glucocorticoid receptor (GR) joining to GRE resembling sequence of Per1 gene (P06537 whole entry): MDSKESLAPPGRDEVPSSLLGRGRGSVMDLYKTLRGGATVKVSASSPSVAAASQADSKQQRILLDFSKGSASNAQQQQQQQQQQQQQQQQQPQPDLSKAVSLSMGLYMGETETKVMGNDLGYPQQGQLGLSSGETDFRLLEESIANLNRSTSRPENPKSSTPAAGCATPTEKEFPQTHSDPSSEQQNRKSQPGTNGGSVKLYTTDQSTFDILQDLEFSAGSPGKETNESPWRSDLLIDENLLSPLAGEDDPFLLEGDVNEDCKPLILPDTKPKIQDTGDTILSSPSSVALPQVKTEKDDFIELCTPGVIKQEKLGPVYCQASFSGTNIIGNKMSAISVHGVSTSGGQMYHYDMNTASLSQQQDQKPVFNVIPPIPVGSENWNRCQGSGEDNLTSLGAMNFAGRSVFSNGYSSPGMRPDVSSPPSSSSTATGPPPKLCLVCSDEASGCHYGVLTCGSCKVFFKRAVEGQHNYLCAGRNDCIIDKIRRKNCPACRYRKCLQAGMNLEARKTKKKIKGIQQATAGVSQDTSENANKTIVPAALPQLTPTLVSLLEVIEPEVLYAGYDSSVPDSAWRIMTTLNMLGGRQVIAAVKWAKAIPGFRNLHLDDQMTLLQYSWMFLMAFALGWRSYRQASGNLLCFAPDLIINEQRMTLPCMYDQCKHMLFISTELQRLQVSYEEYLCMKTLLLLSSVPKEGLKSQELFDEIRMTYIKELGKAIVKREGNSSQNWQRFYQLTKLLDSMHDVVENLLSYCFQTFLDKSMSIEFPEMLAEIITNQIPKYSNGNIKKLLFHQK

SMILES | amount of expression of each clock gene (fold induction, PBS being 1) (Per1 gene; one hour after corticosterone 10 mg/kg, FIG. 7B) | amount of expression of Per1 gene (fold induction, PBS being 1) versus dosage (Per1 gene; one hour after corticosterone, dosage in mg/kg, FIG. 7A) | detection of dGRE and pGRE sequences by semi-quantitative RT-PCR after immunoprecipitation ([1]; FIG. 5B) | amount of dGRE and pGRE DNA amplified (%input) by quantitative real time RT-PCR after immunoprecipitation ([1]; FIG. 5C) | intensity of luminescence, P1FpM ([2]; P1F with GRE resembling sequence mutated in its downstream, FIG. 4D) | intensity of luminescence, P1FdM ([2]; P1F with GRE resembling sequence mutated in its upstream, FIG. 4D) | Relative Luciferase Activity (intensity of luminescence), P1K ([2]; P1K promoter (3806 bases upstream, two GRE resembling sequences), vs EtOH, FIG. 4C) | Relative Luciferase Activity (intensity of luminescence), P1S ([2]; P1S promoter (2369 bases upstream, one GRE resembling sequence), vs EtOH, FIG. 4C)
C[C@]12C[C@H](O)[C@H]3[C@@H](CCC4=CC(=O)CC[C@@]43C)[C@@H]1CC[C@@H]2C(=O)CO [corticosterone] | increases the amount of expression of only Per1 gene among clock genes | increases as the dosage of corticosterone increases | – | – | – | – | – | –
C[C@@H]1C[C@H]2[C@@H]3CCC4=CC(=O)C=C[C@]4(C)[C@@]3(F)[C@@H](O)C[C@]2(C)[C@@]1(O)C(=O)CO [dexamethazone] | – | – | the desired band was detected | greatly amplifies | high intensity of luminescence | a little lower intensity of luminescence | high intensity of luminance | certain intensity of luminance
